Laboratory results reported in patent US6890940B2, “Bis(2-aryl-5-pyridyl) derivatives” (Kowa Co., Ltd., priority 2001, dated 2005).
Where a name gives a salt, the structure may show the parent alone. Read-outs that look alike come from different tables or passages of the source. Marks after values point to notes of the source that are not given here.

How the values were obtained:
[1] = system: IgE antibody production; test: Evaluation of IgE antibody production inhibiting activity (mouse spleen B cells stimulated with LPS and IL-4, IgE in supernatant by ELISA); type: cell-based; details: B-cell; mouse (Balb/C) spleen B cells, LPS + mouse IL-4, drug added Day 1, IgE in culture supernatant by ELISA
Experimental: Test 1 (Evaluation of IgE Antibody Production Inhibiting Activity)
From a mouse (Balb/C, male, 8 weeks old), the spleen was enucleated. The spleen was shredded in 10% FBS/RPMI 1640, and was then disintegrated into single cells through a 70-mesh screen. Those single cells were hemolyzed with Gey's solution, and using RPMI 1640 medium/25 mM HEPES/0.3% BSA, a spleen cell suspension (1×10^7 cells/mL) was prepared. After an aliquot of the suspension was reacted with a rat anti-mouse Thy-1.2 monoclonal antibody (product of Cedarlane Laboratories Limited) at 4° C. for 1 hour, centrifugation was conducted. Precipitated cells were suspended again (1×10^7 cells/mL, RPMI/HEPES/BSA). After the suspension was next reacted with a low-cytotoxic rabbit complement (product of Cedarlane Laboratories Limited) at 37° C. for 1 hour, dead cells were removed by specific gravity centrifugation using Lympholyte M (product of Cedarlane Laboratories Limited) so that a B cell fraction was obtained as viable cells. […]
The IgE antibody production inhibiting activity of each drug was calculated by adding the drug Day 1 of the incubation and assaying the quantity of IgE in the culture supernatant by ELISA after the incubation.

[2] = Solubility of each compound in water; type: physicochemical
Text: Further, the solubility (%) of each compound in water was also estimated.

[3] = Solubility of each compound in water; type: physicochemical; details: in 1M hydrochloric acid (footnote *)

SMILES	IC50 [1] [nM]	Solubility [2] [%]	Solubility [3]
CCN(CCN(CC)c1ccc(-c2cc(OC)c(OC)c(OC)c2)nc1)c1ccc(-c2cc(OC)c(OC)c(OC)c2)nc1 [Example 36, N,N′-Bis[2-(3,4,5-trimethoxyphenyl)-5-pyridyl]-N,N′-diethylethylenediamine dimethanesulfonate]	30	10	–
COc1cc(-c2ccc(N(C)CC(C)(C)CN(C)c3ccc(-c4cc(OC)c(OC)c(OC)c4)nc3)cn2)cc(OC)c1OC [Example 39, N,N′-Bis[2-(3,4,5-trimethoxyphenyl)-5-pyridyl]-N,N′,2,2-tetramethyl-1,3-propanediamine dimethanesulfonate]	80	10	–
COc1cc(-c2ccc(N(C)CC(O)CN(C)c3ccc(-c4cc(OC)c(OC)c(OC)c4)nc3)cn2)cc(OC)c1OC [Example 41, 2-hydroxy-N,N′-bis[2-(3,4,5-trimethoxyphenyl)-5-pyridyl]-N,N′-dimethyl-1,3-propanediamine]	50	–	0.1* %
COc1cc(-c2ccc(N(C)CCN(C)CCN(C)c3ccc(-c4cc(OC)c(OC)c(OC)c4)nc3)cn2)cc(OC)c1OC [Example 42, N,N-Bis[N-[2-(3,4,5-trimethoxyphenyl)-5-pyridyl]-N-methyl-2-aminoethyl]methylamine trihydrochloride.]	100	10	–
COc1cc(-c2ccc(NCCOCCNc3ccc(-c4cc(OC)c(OC)c(OC)c4)nc3)cn2)cc(OC)c1OC [Example 44, Bis[N-[2-(3,4,5-trimethoxyphenyl)-5-pyridyl]-2-aminoethyl]ether dimethanesulfonate]	100	10	–
COc1cc(-c2ccc(N(C)CCCN(C)CCCN(C)c3ccc(-c4cc(OC)c(OCC(F)(F)F)c(OC)c4)nc3)cn2)cc(OC)c1OCC(F)(F)F [Example 57, N,N-Bis[N-[2-(3,5-dimethoxy-4-(2,2,2-trifluoroethoxy)phenyl]-5-pyridyl]-N-methyl-3-aminopropyl]methylamine trihydrochloride]	100	1	–

The next lines start with the values.

IC50 [1] [nM]	Solubility [2] [%]	Solubility [3]	SMILES
40	5	–	COc1cc(-c2ccc(N(C)CCN(C)c3ccc(-c4cc(OC)c(OC)c(OC)c4)nc3)cn2)cc(OC)c1OC [Example 7, N,N′-Bis[2-(3,4,5-trimethoxyphenyl)-5-pyridyl]-N,N′-dimethylethylenediamine dimethanesulfonate]
40	0.1	–	COc1cc(-c2ccc(N(C)CCN(C)c3ccc(-c4cc(OC)c(O)c(OC)c4)nc3)cn2)cc(OC)c1O [Example 14, N,N′-Bis[2-(4-hydroxy-3,5-dimethoxyphenyl)-5-pyridyl]-N,N′-dimethylethylenediamine dimethanesulfonate]
100	0.1	–	COc1cc(-c2ccc(N3CCCN(c4ccc(-c5cc(OC)c(OC)c(OC)c5)nc4)CC3)cn2)cc(OC)c1OC [Example 30, 1,4-Bis[2-(3,4,5-trimethoxyphenyl)-5-pyridyl]hexahydro-1,4-diazepine dimethanesulfonate]
100	10	–	COc1cc(-c2ccc(N(C)CCCN(C)c3ccc(-c4cc(OC)c(OC)c(OC)c4)nc3)cn2)cc(OC)c1OC [Example 37, N,N′-Bis[2-(3,4,5-trimethoxyphenyl)-5-pyridyl]-N,N′-dimethyl-1,3-propanediamine dimethanesulfonate]
100	–	10* %	COc1cc(-c2ccc(N(C)CCCN(C)CCCN(C)c3ccc(-c4cc(OC)c(OC)c(OC)c4)nc3)cn2)cc(OC)c1OC [Example 43, N,N-Bis[N-[2-(3,4,5-trimethoxyphenyl)-5-pyridyl]-N-methyl-3-aminopropyl]methylamine]
50	0.1	–	COc1cc(-c2ccc(N3CCN(c4ccc(-c5cc(OC)c(OC)c(OC)c5)nc4)C(CN(C)C)C3)cn2)cc(OC)c1OC (stereo not drawn) [Example 47, 2-(Dimethylamino)methyl-1,4-bis[2-(,3,4,5-trimethoxyphenyl)-5-pyridyl]piperazine trihydrochloride]
